Structures are written as SMILES. A value given as a limit tells only on which side of the number the result lay.

These results are taken from ChEMBL document CHEMBL4177737, “Identification of bicyclic hexafluoroisopropyl alcohol sulfonamides as retinoic acid receptor-related orphan receptor gamma (RORγ/RORc) inverse agonists. Employing structure-based drug design to improve pregnane X receptor (PXR) selectivity” (Bioorg Med Chem Lett, 2018).

One data set concerns the target T1, PXR (NR1I2) (Homo sapiens, UniProt O75469).
T1 sequence (O75469 whole entry): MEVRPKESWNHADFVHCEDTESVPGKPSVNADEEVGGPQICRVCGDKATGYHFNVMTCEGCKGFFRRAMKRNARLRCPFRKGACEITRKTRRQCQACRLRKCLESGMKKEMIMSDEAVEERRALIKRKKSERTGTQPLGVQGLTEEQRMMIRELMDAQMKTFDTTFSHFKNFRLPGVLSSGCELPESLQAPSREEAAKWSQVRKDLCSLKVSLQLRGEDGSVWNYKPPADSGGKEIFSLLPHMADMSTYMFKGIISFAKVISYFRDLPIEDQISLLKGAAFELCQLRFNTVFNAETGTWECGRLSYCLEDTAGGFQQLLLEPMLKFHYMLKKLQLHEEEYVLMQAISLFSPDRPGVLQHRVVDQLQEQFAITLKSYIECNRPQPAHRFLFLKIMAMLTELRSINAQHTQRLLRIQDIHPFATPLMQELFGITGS
Description: Transactivation of PXR in human HepG2 cells by receptor transactivation assay relative to untreated control. It counts as ADME, cell-based. As to conditions: HepG2 cells, read-out: %max.

The nature of data set [1]: Drug level in Balb/c mouse at 100 mg/kg, po BID measured at 7.5 hrs on day 5. In kind it is ADME, organism-based. The following applies: in vivo, read-out: Drug uptake.
A short description of data set [2]: Stability in mouse liver microsomes assessed as parent compound remaining incubated for 10 mins. In kind it is ADME, microsome. As to conditions: liver microsomes, read-out: Stability. Background: Liver microsomes are a subcellular fraction often used to study metabolism.
Data set [3] in a line: Drug level in Balb/c mouse at 30 mg/kg, po BID measured at 7.5 hrs on day 5. As to conditions: in vivo, read-out: Drug uptake. In kind it is ADME, organism-based.
A short description of data set [4]: Drug level in Balb/c mouse at 100 mg/kg, po BID measured at 1 hr on day 1. It counts as ADME, organism-based. The following applies: in vivo, read-out: Drug uptake.
The subject of data set [5] is Mus musculus. Description: Inhibition of IL-2/IL-23 induced IL-17 production in C57BL/6 mouse challenged 3 times with IL-2/IL-23 (at 0, 7 and 23 hrs) after IL-2 alone priming (-24 hrs) at 25 mg/kg, po dosed 30 mins prior to each IL-2/IL-23 co-administration and measured after 7 hrs post last IL-2/IL-23 challenge. It counts as functional. As to conditions: C57BL/6, po.

The nature of data set [6]: Drug level in Balb/c mouse at 100 mg/kg, po BID measured at 23.5 hrs on day 1. As to conditions: in vivo, read-out: Drug uptake. It counts as ADME, organism-based.
Data set [7] in a line: Drug level in Balb/c mouse at 30 mg/kg, po BID measured at 23.5 hrs on day 1. In kind it is ADME, organism-based. The following applies: in vivo, read-out: Drug uptake.
Data set [8] is described as follows: Drug level in Balb/c mouse at 30 mg/kg, po BID measured at 7.5 hrs on day 1. It counts as ADME, organism-based. As to conditions: in vivo, read-out: Drug uptake.
A short description of data set [9]: Stability in human liver microsomes assessed as parent compound remaining incubated for 10 mins. The following applies: liver microsomes, read-out: Stability. In kind it is ADME, microsome.
Data set [10] deals with Mus musculus. Description: Inhibition of IL-2/IL-23 induced IL-17 production in C57BL/6 mouse challenged 3 times with IL-2/IL-23 (at 0, 7 and 23 hrs) after IL-2 alone priming (-24 hrs) at 50 mg/kg, po dosed 30 mins prior to each IL-2/IL-23 co-administration and measured after 7 hrs post last IL-2/IL-23 challenge. It counts as functional. As to conditions: C57BL/6, po.
The target in data set [11] is T2, Oxysterols receptor LXR-beta (Homo sapiens, UniProt P55055).
T2 sequence (P55055 whole entry): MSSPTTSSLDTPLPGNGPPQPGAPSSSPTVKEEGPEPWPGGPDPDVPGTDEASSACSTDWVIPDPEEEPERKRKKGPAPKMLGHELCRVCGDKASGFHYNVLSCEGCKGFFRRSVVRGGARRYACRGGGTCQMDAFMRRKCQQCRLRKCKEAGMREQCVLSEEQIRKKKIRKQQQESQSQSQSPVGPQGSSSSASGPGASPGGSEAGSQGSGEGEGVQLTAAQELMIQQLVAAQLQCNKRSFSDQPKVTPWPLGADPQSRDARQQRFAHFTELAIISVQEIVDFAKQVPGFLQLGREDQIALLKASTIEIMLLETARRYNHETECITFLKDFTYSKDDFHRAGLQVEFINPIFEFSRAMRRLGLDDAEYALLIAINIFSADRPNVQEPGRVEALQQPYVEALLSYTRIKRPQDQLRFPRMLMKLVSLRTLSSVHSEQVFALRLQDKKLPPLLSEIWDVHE
Description: Agonist activity at GAL4-tagged human LXRbeta assessed as receptor activation expressed in African green monkey CV1 cells by luciferase reporter gene assay. In kind it is cell-based. A general note: A reporter such as luciferase makes a cellular process visible.

The nature of data set [12]: Drug level in Balb/c mouse at 100 mg/kg, po BID measured at 7.5 hrs on day 1. In kind it is ADME, organism-based. As to conditions: in vivo, read-out: Drug uptake.
Data set [13] deals with T3, Oxysterols receptor LXR-alpha (Homo sapiens, UniProt Q13133).
T3 sequence (Q13133 whole entry): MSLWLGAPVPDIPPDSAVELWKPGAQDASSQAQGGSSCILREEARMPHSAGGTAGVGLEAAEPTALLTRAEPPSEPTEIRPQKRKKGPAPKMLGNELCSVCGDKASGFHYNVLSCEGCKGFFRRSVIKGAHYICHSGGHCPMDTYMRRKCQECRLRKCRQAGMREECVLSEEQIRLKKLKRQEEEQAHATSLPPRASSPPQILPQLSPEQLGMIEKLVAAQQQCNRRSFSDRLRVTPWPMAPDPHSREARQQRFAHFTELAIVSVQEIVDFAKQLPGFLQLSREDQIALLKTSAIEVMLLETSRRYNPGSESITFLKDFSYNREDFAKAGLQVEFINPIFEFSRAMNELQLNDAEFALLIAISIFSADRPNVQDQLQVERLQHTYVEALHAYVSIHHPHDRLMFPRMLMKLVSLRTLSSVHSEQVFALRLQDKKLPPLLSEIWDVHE
Description: Agonist activity at GAL4-tagged human LXRalpha assessed as receptor activation expressed in African green monkey CV1 cells by luciferase reporter gene assay. It counts as cell-based.

Data set [14] in a line: Drug level in Balb/c mouse at 30 mg/kg, po BID measured at 1 hr on day 1. In kind it is ADME, organism-based. The following applies: in vivo, read-out: Drug uptake.
Data set [15] in a line: Drug level in Balb/c mouse at 30 mg/kg, po BID measured at 1 hr on day 5. It counts as ADME, organism-based. The following applies: in vivo, read-out: Drug uptake.
The nature of data set [16]: Drug level in Balb/c mouse at 100 mg/kg, po BID measured at 1 hr on day 5. In kind it is ADME, organism-based. As to conditions: in vivo, read-out: Drug uptake.
The target in data set [17] is T4, Nuclear receptor subfamily 1 group I member 2 (Homo sapiens, UniProt O75469).
T4 sequence (O75469 whole entry): T1 sequence (O75469 whole entry)
Description: Transactivation of PXR in human HepG2 cells by receptor transactivation assay. In kind it is ADME, cell-based.

A short description of data set [18]: Drug level in Balb/c mouse at 30 mg/kg, po BID measured at 23.5 hrs on day 5. It counts as ADME, organism-based. As to conditions: in vivo, read-out: Drug uptake.

With `CC(C)(O)[C@H](F)CNC(=O)C[C@@H]1CCc2cc(C(O)(C(F)(F)F)C(F)(F)F)ccc2N1S(=O)(=O)c1ccc(F)cc1`, at PXR (NR1I2), the Emax is 100%. Further, the concentration at 7.5 h came out at 61 nM in data set [1], 21 nM in [3], 134 nM in data set [8] and 2460 nM in data set [12]. The remaining at 10 min in [2] was 62%; in [9], 56%. The concentration at 1 h was 13.9 µM in data set [4], 3.49 µM in data set [14], 555 nM in data set [15] and 2830 nM in data set [16]. Also, the inhibition in vivo at 25 mg/kg in the data set with Mus musculus [5] came out at 74%. In addition, the concentration at 23.5 h in data set [6] turned out to be 19 nM; in [7], 5 nM; in [18] it was 5 nM. The inhibition in vivo at 50 mg/kg in the data set on Mus musculus [10] came to 98%. Moreover, the EC50 in data set [11] was over 7.5 µM; in data set [13] it was over 7.5 µM; in data set [17] it was 2000 nM.

As usually defined, the inhibition in vivo is the share of the control response that was lost under treatment. As usually defined, the EC50 is the concentration at which the effect is half-maximal.
